The values below come from ChEMBL document CHEMBL5303573, “Mapping human microbiome drug metabolism by gut bacteria and their genes” (Nature, 2019).

For data set [1] the following is noted: parabacteroides johnsonii, 12 h, 2 µM.
Description: The drug is tested on Parabacteroides johnsonii strain: DSM18315 for biotransformation. The drug concentrations were measured before and after a 12-h incubation by liquid-chromatography-coupled mass spectrometry (LC–MS)
For data set [2] the following is noted: bacteroides intestinalis, 12 h, 2 µM.
Description: The drug is tested on Bacteroides intestinalis strain: DSM17393 for biotransformation. The drug concentrations were measured before and after a 12-h incubation by liquid-chromatography-coupled mass spectrometry (LC–MS)
Data set [3] in a line: The drug is tested on Parabacteroides merdae strain: ATCC43184 for biotransformation. The drug concentrations were measured before and after a 12-h incubation by liquid-chromatography-coupled mass spectrometry (LC–MS). The settings on record: 2 µM.
For data set [4] the following is noted: bacteroides thetaiotaomicron, 12 h, 2 µM.
Description: The drug is tested on Bacteroides thetaiotaomicron strain: 7330 for biotransformation. The drug concentrations were measured before and after a 12-h incubation by liquid-chromatography-coupled mass spectrometry (LC–MS)
The conditions of data set [5]: bacteroides fragilis, 12 h, 2 µM.
Description: The drug is tested on Bacteroides fragilis strain: NCTC 9343 for biotransformation. The drug concentrations were measured before and after a 12-h incubation by liquid-chromatography-coupled mass spectrometry (LC–MS)
For data set [6] the following is noted: bacteroides stercoris, 12 h, 2 µM.
Description: The drug is tested on Bacteroides stercoris strain: ATCC43183 for biotransformation. The drug concentrations were measured before and after a 12-h incubation by liquid-chromatography-coupled mass spectrometry (LC–MS)
The conditions of data set [7]: bacteroides fragilis, 12 h, 2 µM. The source holds these as a separate data set.
Description: The drug is tested on Bacteroides fragilis strain: DS-208 for biotransformation. The drug concentrations were measured before and after a 12-h incubation by liquid-chromatography-coupled mass spectrometry (LC–MS)
The nature of data set [8]: The drug is tested on Bacteroides vulgatus strain: ATCC8482 for biotransformation. The drug concentrations were measured before and after a 12-h incubation by liquid-chromatography-coupled mass spectrometry (LC–MS). To be noted: phocaeicola vulgatus, 2 µM.
Data set [9] in a line: The drug is tested on Providencia rettgeri strain: DSM1131 for biotransformation. The drug concentrations were measured before and after a 12-h incubation by liquid-chromatography-coupled mass spectrometry (LC–MS). The class given is ADME. Also on record: dose 2 uM, timepoint 0 vs 12 hours. To be noted: 2 µM.
Data set [10] can be described thus: The drug is tested on Bifidobacterium longum subsp. Infantis strain: CCUG52486 for biotransformation. The drug concentrations were measured before and after a 12-h incubation by liquid-chromatography-coupled mass spectrometry (LC–MS). The settings on record: 2 µM.
For data set [11] the following is noted: bacteroides thetaiotaomicron, 12 h, 2 µM. The source holds these as a separate data set.
Description: The drug is tested on Bacteroides thetaiotaomicron strain: VPI-5482 for biotransformation. The drug concentrations were measured before and after a 12-h incubation by liquid-chromatography-coupled mass spectrometry (LC–MS)
The conditions of data set [12]: bacteroides eggerthii, 12 h, 2 µM.
Description: The drug is tested on Bacteroides eggerthii strain: DSM20697 for biotransformation. The drug concentrations were measured before and after a 12-h incubation by liquid-chromatography-coupled mass spectrometry (LC–MS)
Data set [13] is described as follows: The drug is tested on Collinsella intestinalis strain: DSM13280 for biotransformation. The drug concentrations were measured before and after a 12-h incubation by liquid-chromatography-coupled mass spectrometry (LC–MS). The settings on record: 2 µM.
Data set [14] can be described thus: The drug is tested on Clostridium asparagiforme strain: DSM15981 for biotransformation. The drug concentrations were measured before and after a 12-h incubation by liquid-chromatography-coupled mass spectrometry (LC–MS). The class given is ADME. Also on record: dose 2 uM, timepoint 0 vs 12 hours. The settings on record: enterocloster asparagiformis, 2 µM.
A short description of data set [15]: The drug is tested on Clostridium scindens strain: ATCC35704 for biotransformation. The drug concentrations were measured before and after a 12-h incubation by liquid-chromatography-coupled mass spectrometry (LC–MS). To be noted: 2 µM.
Data set [16] is described as follows: The drug is tested on Anaerotruncus colihominis strain: DSM17241 for biotransformation. The drug concentrations were measured before and after a 12-h incubation by liquid-chromatography-coupled mass spectrometry (LC–MS). To be noted: 2 µM.
The conditions of data set [17]: bacteroides thetaiotaomicron, 12 h, 2 µM. This is another data set of the same source.
Description: The drug is tested on Bacteroides thetaiotaomicron strain: 3731 for biotransformation. The drug concentrations were measured before and after a 12-h incubation by liquid-chromatography-coupled mass spectrometry (LC–MS)
The nature of data set [18]: The drug is tested on Bacteroides pectinophilus strain: ATCC43243 for biotransformation. The drug concentrations were measured before and after a 12-h incubation by liquid-chromatography-coupled mass spectrometry (LC–MS). To be noted: 2 µM.
A short description of data set [19]: The drug is tested on Ruminococcus lactaris strain: ATCC29176 for biotransformation. The drug concentrations were measured before and after a 12-h incubation by liquid-chromatography-coupled mass spectrometry (LC–MS). To be noted: 2 µM.
The nature of data set [20]: The drug is tested on Bacteroides xylanisolvens strain: DSM18836 for biotransformation. The drug concentrations were measured before and after a 12-h incubation by liquid-chromatography-coupled mass spectrometry (LC–MS). The settings on record: 2 µM.

Consider `OCCN(CCO)c1nc(N2CCCCC2)c2nc(N(CCO)CCO)nc(N3CCCCC3)c2n1` [DIPYRIDAMOLE], for which the “Bacterial Biotransformation” value in [1] is given as “Compound metabolized”; in data set [2], “Compound NOT metabolized”; in [3], “Compound metabolized”; in data set [4], “Compound NOT metabolized”; in data set [5], “Compound metabolized”; in [6], “Compound NOT metabolized”. The “Bacterial Biotransformation” value in data set [7] is on record as “Compound metabolized”; in data set [8] it was “Compound metabolized”; in data set [9], “Compound NOT metabolized”; in data set [10], “Compound NOT metabolized”; in data set [11], “Compound NOT metabolized”; in data set [12] it was “Compound NOT metabolized”. Also, the “Bacterial Biotransformation” value in data set [13], in data set [14], in [15], in [16] and in [17] was “Compound NOT metabolized” throughout.
`Cc1ccccc1C(OCCN(C)C)c1ccccc1.O=C(O)CC(O)(CC(=O)O)C(=O)O` (stereo unspecified) [ORPHENADRINE CITRATE]: the “Bacterial Biotransformation” value in data set [1], in [2], in data set [3], in data set [4], in [18] and in data set [7] was “Compound NOT metabolized” each time. Moreover, the “Bacterial Biotransformation” value in data set [8], in data set [19], in [9], in [10], in data set [11] and in data set [12] was “Compound NOT metabolized” each time. Besides, the “Bacterial Biotransformation” value in [13], in data set [14], in data set [15], in data set [16] and in data set [17] was “Compound NOT metabolized” throughout.
As to `C#C[C@]1(O)CC[C@H]2[C@@H]3CCC4=CC(=O)CC[C@@H]4[C@H]3CC[C@@]21CC` [LEVONORGESTREL], the “Bacterial Biotransformation” value in data set [1] was “Compound metabolized”; in data set [2], “Compound NOT metabolized”; in data set [3] it was “Compound metabolized”; in data set [4], “Compound metabolized”; in [5] it was “Compound metabolized”; in data set [6], “Compound metabolized”. Moreover, the “Bacterial Biotransformation” value is given as “Compound metabolized” in data set [20]; “Compound NOT metabolized” in [18]; “Compound metabolized” in data set [7]; “Compound metabolized” in data set [8]; “Compound NOT metabolized” in [9]; “Compound NOT metabolized” in [12]. The “Bacterial Biotransformation” value in data set [13] is given as “Compound NOT metabolized”; in data set [14], “Compound NOT metabolized”; in data set [15], “Compound NOT metabolized”; in data set [16], “Compound NOT metabolized”; in [17] it was “Compound metabolized”.
